Experimental data from ChEMBL document CHEMBL1201862, “PubChem BioAssay data set” (2004).
Activity calls are given as the source filed them.

Columns and labels:
[1] = molecular target: DNA dC->dU-editing enzyme APOBEC-3A (Homo sapiens, UniProt P31941); test: APOBEC3A DNA deaminase inhibitors, dose response, biochemical (AID 504722); format: functional
[2] = molecular target: T1, Sentrin-specific protease 8 (Homo sapiens, UniProt Q96LD8); format: functional;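 further: luminescence read-out of SENP8 inhibition, dose-response confirmation following an ultra-high-throughput screen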
T1 sequence (Q96LD8 whole entry): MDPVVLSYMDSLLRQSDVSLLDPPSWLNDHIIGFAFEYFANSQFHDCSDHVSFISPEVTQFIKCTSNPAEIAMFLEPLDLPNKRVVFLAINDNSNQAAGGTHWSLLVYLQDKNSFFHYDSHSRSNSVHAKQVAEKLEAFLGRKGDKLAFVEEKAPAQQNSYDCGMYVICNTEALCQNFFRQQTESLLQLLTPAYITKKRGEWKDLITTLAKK

[3] = molecular target: T2, Rac GTPase-activating protein 1 (Homo sapiens, UniProt Q9H0H5); test: MgcRacGAP GTPase-activating activity inhibitors, confirmation, biochemical, ADP Hunter fluorescence, primary and confirmatory (AID 624330); format: functional
T2 sequence (Q9H0H5 whole entry): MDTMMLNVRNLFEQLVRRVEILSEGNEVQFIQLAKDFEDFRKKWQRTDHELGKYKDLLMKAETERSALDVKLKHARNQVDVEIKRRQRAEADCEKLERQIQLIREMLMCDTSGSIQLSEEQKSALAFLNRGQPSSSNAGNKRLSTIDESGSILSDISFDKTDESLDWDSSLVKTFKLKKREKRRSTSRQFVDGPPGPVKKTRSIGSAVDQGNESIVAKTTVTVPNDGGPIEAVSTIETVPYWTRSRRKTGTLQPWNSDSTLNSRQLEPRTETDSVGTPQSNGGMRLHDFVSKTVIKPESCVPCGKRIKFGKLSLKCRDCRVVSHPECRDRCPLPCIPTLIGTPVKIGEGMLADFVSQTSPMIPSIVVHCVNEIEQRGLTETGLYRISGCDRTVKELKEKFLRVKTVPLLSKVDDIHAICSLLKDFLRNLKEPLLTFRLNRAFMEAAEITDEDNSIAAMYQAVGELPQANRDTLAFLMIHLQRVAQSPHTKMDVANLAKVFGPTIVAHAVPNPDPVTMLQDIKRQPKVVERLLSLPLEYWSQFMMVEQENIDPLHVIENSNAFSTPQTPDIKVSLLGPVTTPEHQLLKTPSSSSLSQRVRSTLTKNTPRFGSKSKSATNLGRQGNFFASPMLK

[4] = molecular target: Protein kinase C theta type (Homo sapiens, UniProt Q04759); test: Navigating the Kinome. Panel member name: PRKCQ; format: functional
[5] = molecular target: Ribosomal protein S6 kinase alpha-3 (Homo sapiens, UniProt P51812); format: functional;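 further: measured within a kinome-wide profiling panel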
[6] = molecular target: Death-associated protein kinase 3 (Homo sapiens, UniProt O43293); format: functional;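 further: measured as one member of a kinome-wide profiling panel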
Sequence of Death-associated protein kinase 3 (O43293 whole entry): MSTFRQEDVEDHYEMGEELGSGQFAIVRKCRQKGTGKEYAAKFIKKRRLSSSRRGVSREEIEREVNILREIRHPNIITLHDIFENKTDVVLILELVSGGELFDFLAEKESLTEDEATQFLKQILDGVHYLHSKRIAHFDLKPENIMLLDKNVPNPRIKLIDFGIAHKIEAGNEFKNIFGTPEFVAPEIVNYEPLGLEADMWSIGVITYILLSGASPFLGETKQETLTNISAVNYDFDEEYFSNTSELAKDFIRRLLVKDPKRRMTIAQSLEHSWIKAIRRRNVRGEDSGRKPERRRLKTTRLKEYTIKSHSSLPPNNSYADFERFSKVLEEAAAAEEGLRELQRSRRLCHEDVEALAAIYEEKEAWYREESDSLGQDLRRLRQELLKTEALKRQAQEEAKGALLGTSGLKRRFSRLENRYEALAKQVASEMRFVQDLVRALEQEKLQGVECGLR

[7] = molecular target: Mitogen-activated protein kinase 8 (Homo sapiens, UniProt P45983); format: functional;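 further: value comes from one member of a kinome-wide kinase profiling panel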
Sequence of Mitogen-activated protein kinase 8 (P45983 whole entry): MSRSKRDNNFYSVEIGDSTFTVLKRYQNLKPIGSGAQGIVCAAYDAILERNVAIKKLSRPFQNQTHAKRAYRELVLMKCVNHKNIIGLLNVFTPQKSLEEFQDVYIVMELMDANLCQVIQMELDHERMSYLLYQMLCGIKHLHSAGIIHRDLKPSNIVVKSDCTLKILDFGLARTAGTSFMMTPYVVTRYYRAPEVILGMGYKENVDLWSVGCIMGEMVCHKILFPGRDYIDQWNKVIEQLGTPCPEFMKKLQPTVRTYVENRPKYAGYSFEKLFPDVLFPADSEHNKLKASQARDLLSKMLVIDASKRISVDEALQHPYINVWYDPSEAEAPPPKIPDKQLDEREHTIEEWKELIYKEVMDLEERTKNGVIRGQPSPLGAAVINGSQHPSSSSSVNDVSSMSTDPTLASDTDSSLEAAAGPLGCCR

Aurora kinase A = Aurora kinase A (Homo sapiens, UniProt O14965); format: functional;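 further: value from the Navigating the Kinome kinase panel profiling, panel entry STK6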
Sequence of Aurora kinase A (O14965 whole entry): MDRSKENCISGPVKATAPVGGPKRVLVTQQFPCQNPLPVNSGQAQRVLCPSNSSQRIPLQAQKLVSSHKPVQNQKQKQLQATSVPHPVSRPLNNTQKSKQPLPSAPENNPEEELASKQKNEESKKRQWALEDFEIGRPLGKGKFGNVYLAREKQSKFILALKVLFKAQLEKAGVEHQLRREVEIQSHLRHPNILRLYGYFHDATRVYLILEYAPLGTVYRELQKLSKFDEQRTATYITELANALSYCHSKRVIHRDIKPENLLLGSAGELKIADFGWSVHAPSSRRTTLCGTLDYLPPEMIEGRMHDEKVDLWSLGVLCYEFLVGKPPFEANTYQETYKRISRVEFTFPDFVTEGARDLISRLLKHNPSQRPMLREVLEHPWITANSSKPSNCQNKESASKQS

[8] = molecular target: Serine/threonine-protein kinase PAK 4 (Homo sapiens, UniProt O96013); format: functional;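 further: value obtained within a kinome profiling panel in which PAK4 was one of the panel members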
Sequence of Serine/threonine-protein kinase PAK 4 (O96013 whole entry, the tested form may be a part): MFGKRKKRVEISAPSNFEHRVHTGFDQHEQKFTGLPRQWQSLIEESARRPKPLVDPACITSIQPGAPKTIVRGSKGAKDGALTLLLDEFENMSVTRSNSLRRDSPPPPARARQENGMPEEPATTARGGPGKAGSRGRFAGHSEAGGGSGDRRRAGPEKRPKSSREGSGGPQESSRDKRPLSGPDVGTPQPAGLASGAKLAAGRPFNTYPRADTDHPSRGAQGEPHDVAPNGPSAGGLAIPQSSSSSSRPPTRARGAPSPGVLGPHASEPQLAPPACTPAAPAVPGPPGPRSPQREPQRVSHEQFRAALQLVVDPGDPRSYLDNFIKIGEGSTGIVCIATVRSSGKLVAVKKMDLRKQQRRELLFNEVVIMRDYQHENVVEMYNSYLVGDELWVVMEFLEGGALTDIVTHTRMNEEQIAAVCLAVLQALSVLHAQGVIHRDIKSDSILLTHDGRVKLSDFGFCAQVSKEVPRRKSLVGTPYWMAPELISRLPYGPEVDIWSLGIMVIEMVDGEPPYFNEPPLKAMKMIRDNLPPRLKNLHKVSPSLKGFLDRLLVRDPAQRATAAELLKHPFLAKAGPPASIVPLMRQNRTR

LIM domain kinase 1 = LIM domain kinase 1 (Homo sapiens, UniProt P53667); test: Navigating the Kinome. Panel member name: LIMK1; format: functional
Sequence of LIM domain kinase 1 (P53667 whole entry, the tested form may be a part): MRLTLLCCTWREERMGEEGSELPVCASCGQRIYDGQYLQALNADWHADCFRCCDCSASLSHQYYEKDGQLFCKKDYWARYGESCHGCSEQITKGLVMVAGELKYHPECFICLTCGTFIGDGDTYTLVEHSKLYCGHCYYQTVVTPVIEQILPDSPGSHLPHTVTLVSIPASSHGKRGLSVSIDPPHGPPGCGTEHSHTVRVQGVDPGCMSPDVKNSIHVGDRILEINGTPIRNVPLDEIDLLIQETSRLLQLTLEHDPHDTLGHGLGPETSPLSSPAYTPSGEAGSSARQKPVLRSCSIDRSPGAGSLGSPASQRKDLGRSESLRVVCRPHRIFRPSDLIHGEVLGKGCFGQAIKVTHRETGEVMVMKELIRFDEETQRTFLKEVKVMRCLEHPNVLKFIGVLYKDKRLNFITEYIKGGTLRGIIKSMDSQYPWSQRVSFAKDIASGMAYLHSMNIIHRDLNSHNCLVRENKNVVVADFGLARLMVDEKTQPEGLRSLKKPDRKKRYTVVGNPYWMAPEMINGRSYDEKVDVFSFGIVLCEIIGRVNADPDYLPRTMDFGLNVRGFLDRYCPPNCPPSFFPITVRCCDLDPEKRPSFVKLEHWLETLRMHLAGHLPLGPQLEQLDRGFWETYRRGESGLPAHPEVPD

[9] = molecular target: Serine/threonine-protein kinase TAO1 (Homo sapiens, UniProt Q7L7X3); format: functional
Sequence of Serine/threonine-protein kinase TAO1 (Q7L7X3 whole entry): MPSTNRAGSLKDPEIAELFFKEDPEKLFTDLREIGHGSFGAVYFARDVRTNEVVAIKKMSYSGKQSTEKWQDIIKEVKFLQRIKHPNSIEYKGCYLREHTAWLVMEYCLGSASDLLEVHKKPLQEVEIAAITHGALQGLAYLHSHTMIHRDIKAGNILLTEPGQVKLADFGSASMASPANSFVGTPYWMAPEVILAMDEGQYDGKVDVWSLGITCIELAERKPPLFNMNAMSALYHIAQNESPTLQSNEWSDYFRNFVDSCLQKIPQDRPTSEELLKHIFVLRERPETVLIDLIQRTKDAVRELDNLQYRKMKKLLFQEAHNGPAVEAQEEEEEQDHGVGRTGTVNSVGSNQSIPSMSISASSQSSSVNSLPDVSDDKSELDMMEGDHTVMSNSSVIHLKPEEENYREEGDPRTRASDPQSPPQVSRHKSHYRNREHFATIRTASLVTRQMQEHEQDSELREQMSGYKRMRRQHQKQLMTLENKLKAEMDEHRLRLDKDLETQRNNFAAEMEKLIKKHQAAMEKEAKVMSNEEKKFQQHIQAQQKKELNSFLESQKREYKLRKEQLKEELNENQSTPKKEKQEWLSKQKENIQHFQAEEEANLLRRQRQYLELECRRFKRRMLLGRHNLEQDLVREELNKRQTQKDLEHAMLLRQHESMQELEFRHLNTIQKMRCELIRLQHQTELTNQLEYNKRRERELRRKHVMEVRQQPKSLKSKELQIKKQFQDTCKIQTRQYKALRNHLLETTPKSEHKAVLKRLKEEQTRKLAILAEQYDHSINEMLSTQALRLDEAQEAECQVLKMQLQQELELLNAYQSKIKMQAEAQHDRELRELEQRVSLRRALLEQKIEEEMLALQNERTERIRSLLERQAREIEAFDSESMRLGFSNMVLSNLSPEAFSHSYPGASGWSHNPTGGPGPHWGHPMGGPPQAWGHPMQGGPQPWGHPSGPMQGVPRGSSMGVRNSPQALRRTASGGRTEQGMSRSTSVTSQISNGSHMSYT

[10] = molecular target: Platelet-derived growth factor receptor beta (Homo sapiens, UniProt P09619); format: functional;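 further: value comes from a kinome panel, with PDGFRB tested as one panel member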
[11] = molecular target: Cyclin-dependent kinase 5 (Homo sapiens, UniProt Q00535); format: functional;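 further: CDK5 measured as one member of a kinase profiling panel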
Sequence of Cyclin-dependent kinase 5 (Q00535 whole entry): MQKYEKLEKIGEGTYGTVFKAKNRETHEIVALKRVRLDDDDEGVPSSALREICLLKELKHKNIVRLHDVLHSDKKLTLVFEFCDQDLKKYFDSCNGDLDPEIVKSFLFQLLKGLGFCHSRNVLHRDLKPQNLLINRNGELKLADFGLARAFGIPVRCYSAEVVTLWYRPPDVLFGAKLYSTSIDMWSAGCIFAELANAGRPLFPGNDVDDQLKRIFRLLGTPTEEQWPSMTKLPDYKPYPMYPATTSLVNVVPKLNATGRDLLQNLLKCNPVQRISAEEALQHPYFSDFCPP

[12] = molecular target: Cyclin-dependent kinase 7 (Homo sapiens, UniProt P50613); format: functional;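 further: value comes from a kinome-wide kinase profiling panel in which CDK7 is one member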
Sequence of Cyclin-dependent kinase 7 (P50613 whole entry): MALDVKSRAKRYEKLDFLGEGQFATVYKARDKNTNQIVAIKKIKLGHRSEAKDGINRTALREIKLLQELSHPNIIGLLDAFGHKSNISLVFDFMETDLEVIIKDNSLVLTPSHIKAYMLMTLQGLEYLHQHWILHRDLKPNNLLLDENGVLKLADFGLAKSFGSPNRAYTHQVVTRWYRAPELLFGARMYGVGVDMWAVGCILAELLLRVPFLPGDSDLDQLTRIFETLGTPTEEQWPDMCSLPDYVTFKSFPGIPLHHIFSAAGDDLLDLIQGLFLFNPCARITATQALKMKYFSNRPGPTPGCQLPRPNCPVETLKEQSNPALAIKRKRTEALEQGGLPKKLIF

[13] = molecular target: Vascular endothelial growth factor receptor 1 (Homo sapiens, UniProt P17948); format: functional;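 further: measured within a kinome-wide profiling panel, FLT1 as the panel member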
[14] = molecular target: Macrophage-stimulating protein receptor (Homo sapiens, UniProt Q04912); test: Navigating the Kinome. Panel member name: MST1R; format: functional
[15] = molecular target: Calcium/calmodulin-dependent protein kinase type II subunit alpha (Homo sapiens, UniProt Q9UQM7); test: Navigating the Kinome. Panel member name: CAMK2A; format: functional
Sequence of Calcium/calmodulin-dependent protein kinase type II subunit alpha (Q9UQM7 whole entry, the tested form may be a part): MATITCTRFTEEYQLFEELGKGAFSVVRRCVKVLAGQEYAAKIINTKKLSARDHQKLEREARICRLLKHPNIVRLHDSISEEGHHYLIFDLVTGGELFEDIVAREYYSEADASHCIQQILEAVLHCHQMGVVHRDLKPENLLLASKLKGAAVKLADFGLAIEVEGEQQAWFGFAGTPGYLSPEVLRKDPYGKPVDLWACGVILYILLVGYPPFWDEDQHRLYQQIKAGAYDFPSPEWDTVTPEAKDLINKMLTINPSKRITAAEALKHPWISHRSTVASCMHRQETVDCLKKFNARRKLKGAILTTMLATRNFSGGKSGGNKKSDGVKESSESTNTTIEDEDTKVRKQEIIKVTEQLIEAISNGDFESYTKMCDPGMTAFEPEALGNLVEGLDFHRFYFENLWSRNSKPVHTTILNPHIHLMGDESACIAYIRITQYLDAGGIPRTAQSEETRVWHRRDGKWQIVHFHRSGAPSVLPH

[16] = molecular target: T3, RNA-binding protein pos-1 (Caenorhabditis elegans, UniProt G5EF15); test: inhibitors of POS-1/mex-3 RNA binding, dose response, biochemical, fluorescence polarization (AID 1964);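 further: purified POS-1 fused to maltose binding protein made in E. coli; potency of compounds blocking POS-1 binding to fluorescent RNA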
T3 sequence (G5EF15 whole entry): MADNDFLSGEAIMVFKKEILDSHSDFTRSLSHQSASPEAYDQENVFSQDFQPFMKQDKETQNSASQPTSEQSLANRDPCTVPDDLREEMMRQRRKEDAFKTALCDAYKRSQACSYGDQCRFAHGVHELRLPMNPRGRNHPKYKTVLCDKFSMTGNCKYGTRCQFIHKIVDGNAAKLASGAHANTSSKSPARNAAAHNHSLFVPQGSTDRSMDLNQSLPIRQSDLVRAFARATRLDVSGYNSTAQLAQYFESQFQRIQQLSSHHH

[17] = molecular target: T4, Alkaline phosphatase, tissue-nonspecific isozyme (Homo sapiens, UniProt P05186); test: TNAP enzyme activators, dose response, selectivity assay for mouse IAP activator project, biochemical, TNAP isozyme, mouse IAP uHTS hits (AID 488880); format: functional
T4 sequence (P05186 whole entry): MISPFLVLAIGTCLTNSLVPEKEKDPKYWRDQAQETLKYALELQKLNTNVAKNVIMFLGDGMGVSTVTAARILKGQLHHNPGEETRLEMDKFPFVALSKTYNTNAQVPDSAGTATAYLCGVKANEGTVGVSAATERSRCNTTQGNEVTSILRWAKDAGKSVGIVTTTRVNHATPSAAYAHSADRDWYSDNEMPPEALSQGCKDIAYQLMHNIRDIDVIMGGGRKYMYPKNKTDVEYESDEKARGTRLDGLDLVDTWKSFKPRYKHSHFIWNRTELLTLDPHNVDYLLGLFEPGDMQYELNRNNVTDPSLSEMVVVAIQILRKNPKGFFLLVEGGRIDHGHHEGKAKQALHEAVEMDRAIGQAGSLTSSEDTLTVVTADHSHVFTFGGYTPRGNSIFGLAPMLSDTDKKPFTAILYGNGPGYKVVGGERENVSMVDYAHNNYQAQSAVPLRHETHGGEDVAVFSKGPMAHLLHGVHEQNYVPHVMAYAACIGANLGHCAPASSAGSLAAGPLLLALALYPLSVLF

Sequence of DNA dC->dU-editing enzyme APOBEC-3A (P31941 whole entry): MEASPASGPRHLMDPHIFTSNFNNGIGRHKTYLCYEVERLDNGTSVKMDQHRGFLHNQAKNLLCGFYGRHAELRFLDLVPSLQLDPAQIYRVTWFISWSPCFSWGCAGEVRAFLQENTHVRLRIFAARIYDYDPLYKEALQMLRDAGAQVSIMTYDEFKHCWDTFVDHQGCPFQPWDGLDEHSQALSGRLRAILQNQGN

`CC(=O)N(C1=C(Cl)C(=O)c2ccccc2C1=O)c1ccc(C(=O)O)cc1` was tested, and the IC50 [1] was > 100 µM (inactive), the IC50 [2] was 5.99 µM (active) and the IC50 [3] was 165 µM (active).

`Cc1ccc(-c2cc3nc(Br)cnc3[nH]2)cc1` was tested, and the Ki [4] was > 2.51 µM (inactive), the Ki [5] was > 3.98 µM (inactive) and the Ki [6] was > 5.01 µM (inactive). The Ki [7] was > 5.01 µM (inactive), the Ki (Aurora kinase A) was > 1.58 µM (inactive) and the Ki [8] was > 5.01 µM (inactive). For the same molecule, the Ki (LIM domain kinase 1) was > 3.16 µM (inactive), the Ki [9] was > 6.31 µM (inactive) and the Ki [10] was > 2 µM (inactive). For the same molecule, the Ki [11] was 0.00794 µM (active), the Ki [12] was 0.158 µM (active) and the Ki [13] was > 3.98 µM (inactive). The Ki [14] was > 3.98 µM (inactive) and the Ki [15] was > 7.94 µM (inactive).

In the case of `O=C1C=C(O)c2c(O)cc(O)c(O)c2C1=O`, the EC50 [16] was 1.07 µM (inconclusive) and the EC50 [17] was > 100 µM (inactive).
